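Grown in 96-well plates, cells were treated for 48 hours with each compound at five concentrations. Insufficient inhibition: endpoint recorded as highest concentration tested. GI50 is the concentration that inhibits growth by half.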 Calls of active or inactive are those of the source. Cut-off read from the data, not from the text of the source: active = GI50 up to about 1.1 µM and inactive = higher.
Experiments:
Experiment in all cases: NCI anticancer screen, dose series, 48 h
K562 = system: K562
NCI-H23 = system: NCI-H23
OVCAR-8 = system: OVCAR-8
SN12C = system: SN12C
SNB-19 = system: SNB-19
SK-MEL-5 = system: SK-MEL-5
OVCAR-5 = system: OVCAR-5
OVCAR-3 = system: OVCAR-3
MCF7 = system: MCF7
MOLT-4 = system: MOLT-4
SF-295 = system: SF-295
HT-29 = system: HT-29
SK-OV-3 = system: SK-OV-3
MDA-MB-231 = system: MDA-MB-231
COLO 205 = system: COLO 205
SNB-75 = system: SNB-75
EKVX = system: EKVX
TK-10 = system: TK-10
UO-31 = system: UO-31
Malme-3M = system: Malme-3M
UACC-62 = system: UACC-62
NCI-H226 = system: NCI-H226
HOP-62 = system: HOP-62
SF-539 = system: SF-539
PC-3 = system: PC-3
DU-145 = system: DU-145
HOP-92 = system: HOP-92
HCT-116 = system: HCT-116
ACHN = system: ACHN
CCRF-CEM = system: CCRF-CEM
MDA-MB-435 = system: MDA-MB-435
IGROV-1 = system: IGROV-1
T47D = system: T47D
CAKI-1 = system: CAKI-1
HCT-15 = system: HCT-15
MDA-N = system: MDA-N
HCC 2998 = system: HCC 2998
A549 = system: A549
NCI/ADR-RES = system: NCI/ADR-RES
NCI-H522 = system: NCI-H522
KM12 = system: KM12
UACC-257 = system: UACC-257
SK-MEL-28 = system: SK-MEL-28
LOX IMVI = system: LOX IMVI
786-0 = system: 786-0
U-251 = system: U-251
M14 = system: M14
OVCAR-4 = system: OVCAR-4
SK-MEL-2 = system: SK-MEL-2
SW-620 = system: SW-620
HL-60 = system: HL-60
SF-268 = system: SF-268
A498 = system: A498
SR = system: SR
RXF 393 = system: RXF 393
Hs-578T = system: Hs-578T
RPMI-8226 = system: RPMI-8226
NCI-H460 = system: NCI-H460

Cc1cc(NS(=O)(=O)c2ccc(/N=N/c3c(Nc4ccccc4)nn(-c4ccc(S(=O)(=O)Nc5ccncn5)cc4)c3C)cc2)no1
GI50 (K562): 86.1 µM (inactive)
GI50 (NCI-H23): > 100 µM (inactive)
GI50 (OVCAR-8): > 100 µM (inactive)
GI50 (SN12C): > 100 µM (inactive)
GI50 (SNB-19): > 100 µM (inactive)
GI50 (SK-MEL-5): > 100 µM (inactive)
GI50 (OVCAR-5): > 100 µM (inactive)
GI50 (OVCAR-3): > 100 µM (inactive)
GI50 (MCF7): > 100 µM (inactive)
GI50 (MOLT-4): > 100 µM (inactive)
GI50 (SF-295): > 100 µM (inactive)
GI50 (HT-29): > 100 µM (inactive)
GI50 (SK-OV-3): > 100 µM (inactive)
GI50 (MDA-MB-231): > 100 µM (inactive)
GI50 (COLO 205): > 100 µM (inactive)
GI50 (SNB-75): > 100 µM (inactive)
GI50 (EKVX): > 100 µM (inactive)
GI50 (TK-10): > 100 µM (inactive)
GI50 (UO-31): > 100 µM (inactive)
GI50 (Malme-3M): > 100 µM (inactive)
GI50 (UACC-62): > 100 µM (inactive)
GI50 (NCI-H226): > 100 µM (inactive)
GI50 (HOP-62): > 100 µM (inactive)
GI50 (SF-539): > 100 µM (inactive)
GI50 (PC-3): > 100 µM (inactive)
GI50 (DU-145): > 100 µM (inactive)
GI50 (HOP-92): > 100 µM (inactive)
GI50 (HCT-116): > 100 µM (inactive)
GI50 (ACHN): > 100 µM (inactive)
GI50 (CCRF-CEM): > 100 µM (inactive)
GI50 (MDA-MB-435): > 100 µM (inactive)
GI50 (IGROV-1): > 100 µM (inactive)
GI50 (T47D): > 100 µM (inactive)
GI50 (CAKI-1): > 100 µM (inactive)
GI50 (HCT-15): > 100 µM
GI50 (MDA-N): > 100 µM (inactive)
GI50 (HCC 2998): > 100 µM (inactive)
GI50 (A549): > 100 µM (inactive)
GI50 (NCI/ADR-RES): > 100 µM (inactive)
GI50 (NCI-H522): > 100 µM (inactive)
GI50 (KM12): > 100 µM (inactive)
GI50 (UACC-257): > 100 µM (inactive)
GI50 (SK-MEL-28): > 100 µM (inactive)
GI50 (LOX IMVI): > 100 µM (inactive)
GI50 (786-0): > 100 µM (inactive)
GI50 (U-251): > 100 µM (inactive)
GI50 (M14): > 100 µM (inactive)
GI50 (OVCAR-4): > 100 µM (inactive)
GI50 (SK-MEL-2): > 100 µM (inactive)

C[C@]12C(=O)C=CCC1=CC[C@@H]1[C@@H]2[C@H]2CC3(O)C(=O)O[C@@]4(C)[C@H]5C[C@@]6(C)[C@@H]7[C@@]2(O)[C@]1(OC[C@H]6C(=O)O5)O[C@]734 (stereo partly specified)
GI50 (K562): 38.2 µM (inactive)
GI50 (NCI-H23): 24.2 µM (inactive)
GI50 (OVCAR-8): 28.4 µM (inactive)
GI50 (SN12C): 30.1 µM (inactive)
GI50 (SW-620): 35.2 µM (inactive)
GI50 (SNB-19): 62.4 µM (inactive)
GI50 (SK-MEL-5): 50 µM (inactive)
GI50 (OVCAR-5): 29 µM (inactive)
GI50 (HL-60): 17.5 µM (inactive)
GI50 (MCF7): 31.7 µM (inactive)
GI50 (MOLT-4): 23.2 µM (inactive)
GI50 (SF-295): 57.4 µM (inactive)
GI50 (HT-29): 40.1 µM (inactive)
GI50 (MDA-MB-231): 43.7 µM (inactive)
GI50 (COLO 205): 39.6 µM (inactive)
GI50 (SF-268): 37.1 µM (inactive)
GI50 (SNB-75): 54.7 µM (inactive)
GI50 (EKVX): 43.9 µM (inactive)
GI50 (TK-10): 93.8 µM (inactive)
GI50 (UO-31): > 100 µM (inactive)
GI50 (Malme-3M): 74.8 µM (inactive)
GI50 (UACC-62): 26.4 µM (inactive)
GI50 (SF-539): 17.7 µM (inactive)
GI50 (PC-3): 41.9 µM (inactive)
GI50 (A498): 54.6 µM (inactive)
GI50 (DU-145): 58.2 µM (inactive)
GI50 (HOP-92): 68.4 µM (inactive)
GI50 (HCT-116): 31.8 µM (inactive)
GI50 (ACHN): 61.9 µM (inactive)
GI50 (CCRF-CEM): 20.8 µM (inactive)
GI50 (MDA-MB-435): 36.6 µM (inactive)
GI50 (SR): 28.4 µM (inactive)
GI50 (RXF 393): 20.2 µM (inactive)
GI50 (IGROV-1): 40.1 µM (inactive)
GI50 (CAKI-1): 40.7 µM (inactive)
GI50 (HCT-15): 53.7 µM
GI50 (Hs-578T): 51.1 µM (inactive)
GI50 (MDA-N): 37.9 µM (inactive)
GI50 (A549): > 100 µM (inactive)
GI50 (RPMI-8226): 34.8 µM (inactive)
GI50 (NCI/ADR-RES): > 100 µM (inactive)
GI50 (NCI-H522): 14.3 µM (inactive)
GI50 (KM12): 30.5 µM (inactive)
GI50 (UACC-257): 59.4 µM (inactive)
GI50 (SK-MEL-28): 28.4 µM (inactive)
GI50 (LOX IMVI): 27.4 µM (inactive)
GI50 (786-0): 34.5 µM (inactive)
GI50 (NCI-H460): 35.8 µM (inactive)
GI50 (U-251): 34.6 µM (inactive)
GI50 (M14): 28.8 µM (inactive)
GI50 (OVCAR-4): 54.3 µM (inactive)
GI50 (SK-MEL-2): 23 µM (inactive)

COc1cc(/C=C2\CCC(C)c3c2nc(N)c(C#N)c3-c2cc(OC)c(OC)c(OC)c2)cc(OC)c1OC (stereo unspecified)
GI50 (K562): 28.6 µM (inactive)
GI50 (OVCAR-8): 13.2 µM (inactive)
GI50 (SN12C): 44.4 µM (inactive)
GI50 (SW-620): 81.8 µM (inactive)
GI50 (SNB-19): 54 µM (inactive)
GI50 (SK-MEL-5): 71.9 µM (inactive)
GI50 (OVCAR-5): > 100 µM (inactive)
GI50 (HL-60): 49.1 µM (inactive)
GI50 (MCF7): 29.9 µM (inactive)
GI50 (MOLT-4): 25.2 µM (inactive)
GI50 (HT-29): 33.3 µM (inactive)
GI50 (SK-OV-3): > 100 µM (inactive)
GI50 (MDA-MB-231): 37.2 µM (inactive)
GI50 (SF-268): 25.7 µM (inactive)
GI50 (SNB-75): 0.165 µM (active)
GI50 (EKVX): 34.5 µM (inactive)
GI50 (TK-10): 75.3 µM (inactive)
GI50 (UACC-62): > 100 µM (inactive)
GI50 (HOP-62): > 100 µM (inactive)
GI50 (PC-3): 55.1 µM (inactive)
GI50 (A498): > 100 µM (inactive)
GI50 (DU-145): 55.2 µM (inactive)
GI50 (HOP-92): 67.5 µM (inactive)
GI50 (HCT-116): > 100 µM (inactive)
GI50 (ACHN): > 100 µM (inactive)
GI50 (CCRF-CEM): 23.7 µM (inactive)
GI50 (MDA-MB-435): > 100 µM (inactive)
GI50 (SR): 25.8 µM (inactive)
GI50 (RXF 393): 73.3 µM (inactive)
GI50 (IGROV-1): 0.984 µM (active)
GI50 (CAKI-1): > 100 µM (inactive)
GI50 (HCT-15): 27.1 µM
GI50 (Hs-578T): 18.7 µM (inactive)
GI50 (MDA-N): > 100 µM (inactive)
GI50 (A549): > 100 µM (inactive)
GI50 (RPMI-8226): 56.2 µM (inactive)
GI50 (KM12): 51.6 µM (inactive)
GI50 (UACC-257): > 100 µM (inactive)
GI50 (SK-MEL-28): > 100 µM (inactive)
GI50 (LOX IMVI): 41.5 µM (inactive)
GI50 (786-0): 37.4 µM (inactive)
GI50 (U-251): 46 µM (inactive)
GI50 (M14): 45.7 µM (inactive)
GI50 (OVCAR-4): 31.5 µM (inactive)
GI50 (SK-MEL-2): > 100 µM (inactive)
